Laboratory results as given in patent US5514662A, “Use of amphotericin B derivatives as protease inhibitors” (priority 1991, dated 1996).

Key:
SIVmac251 = assay: Formation of syncytia in HUT78 cells infected with SIVmac251; type: cell-based, SIV
Method: HUT78 cells were inoculated in 96-well plates in an amount of 2×10^4 cells per well, in […]. They were infected with various viral concentrations and DABF-AmB was added immediately after the infection, at various concentrations. The formation of syncytia was evaluated after 3 and 5 days by direct reading under an inverted microscope (semi-quantitative test).

HUT78 cells = assay: Cytotoxicity in HUT78 cells; type: cell-based
HIV LAV/BRU = assay: Protection of CD4 cells in cultures of HIV-infected human thymocytes; type: cell-based, HIV-1
Method: Human thymuses were obtained during corrective heart surgery operations on 3 to 7 year old children. The tissues were cut into fragments and the red blood cells were removed by treating with […] buffer. After washing in PBS buffer, cellular suspensions were prepared in an RPMI 1640 medium containing 10% of human serum type […]. Dead cells were removed by passing over a sterile nylon wool column.
The cells were infected with HIV LAV/BRU as indicated above in the general procedures, and then re-inoculated in the presence of PHA, of anti-CD2 or anti-CD3 antibodies and of IL2 and cultured for 10 days at a rate of 1×10^7 cells/ml. After 10 days, viral production was evaluated by measuring the RT activity in the supernatants and the distribution of CD4/CD8 was evaluated by double fluorescence flow cytometry by means of FITC-labelled anti-CD4 antibodies (OKT4) and phycoerythrin-labelled anti-CD8 antibodies (OKT8). DABF-AmB was added to the cultures immediately after infection and maintained during the entire duration of the culture.

C[C@@H]1[C@H](O)[C@@H](C)/C=C/C=C/C=C/C=C/C=C/C=C/C=C/[C@H](O[C@@H]2O[C@H](C)[C@@H](O)[C@H](NCC(=O)[C@@H](O)[C@@H]3OC(c4ccccc4)OC[C@H]3O)[C@@H]2O)C[C@@H]2O[C@](O)(C[C@@H](O)C[C@@H](O)[C@H](O)CC[C@@H](O)C[C@@H](O)CC(=O)O[C@H]1C)C[C@H](O)[C@H]2C(=O)O (stereo partly drawn) [DABF-AmB, 1-deoxy-1-amino-4,6-O-benzylidene-D-fructosyl-AmB]
formation of syncytia (SIVmac251; 0.1 μM, 10 TCID50, 3 days): - | formation of syncytia (SIVmac251; 0.1 μM, 10 TCID50, 5 days): + | formation of syncytia (SIVmac251; 0.1 μM, 100 TCID50, 3 days): + | formation of syncytia (SIVmac251; 0.5 μM, 10 TCID50, 3 days): - | formation of syncytia (SIVmac251; 0.5 μM, 10 TCID50, 5 days): + | formation of syncytia (SIVmac251; 0.5 μM, 100 TCID50, 3 days): + | formation of syncytia (SIVmac251; 1 μM, 10 TCID50, 3 days): - | formation of syncytia (SIVmac251; 1 μM, 10 TCID50, 5 days): + | formation of syncytia (SIVmac251; 1 μM, 100 TCID50, 3 days): + | formation of syncytia (SIVmac251; 5 μM, 10 TCID50, 3 days): - | formation of syncytia (SIVmac251; 5 μM, 10 TCID50, 5 days): - and + | formation of syncytia (SIVmac251; 5 μM, 100 TCID50, 3 days): - and + | formation of syncytia (SIVmac251; 5 μM, 100 TCID50, 5 days): - and + | formation of syncytia (SIVmac251; 5 μM, 500 TCID50, 3 days): - and + | formation of syncytia (SIVmac251; 5 μM, 500 TCID50, 5 days): + and - | formation of syncytia (SIVmac251; 10 μM, 10 TCID50, 3 days): - | formation of syncytia (SIVmac251; 10 μM, 10 TCID50, 5 days): - | formation of syncytia (SIVmac251; 10 μM, 100 TCID50, 3 days): - | formation of syncytia (SIVmac251; 10 μM, 100 TCID50, 5 days): - and + | formation of syncytia (SIVmac251; 10 μM, 500 TCID50, 3 days): - | formation of syncytia (SIVmac251; 10 μM, 500 TCID50, 5 days): - and + | formation of syncytia (SIVmac251; 50 μM, 10 TCID50, 3 days): - | formation of syncytia (SIVmac251; 50 μM, 100 TCID50, 3 days): - | formation of syncytia (SIVmac251; 50 μM, 100 TCID50, 5 days): - | formation of syncytia (SIVmac251; 50 μM, 500 TCID50, 3 days): - | formation of syncytia (SIVmac251; 50 μM, 500 TCID50, 5 days): - | formation of syncytia (SIVmac251; 100 μM, 10 TCID50, 5 days): - | formation of syncytia (SIVmac251; 100 μM, 100 TCID50, 3 days): - | formation of syncytia (SIVmac251; 100 μM, 100 TCID50, 5 days): - | formation of syncytia (SIVmac251; 100 μM, 500 TCID50, 3 days): - | formation of syncytia (SIVmac251; 100 μM, 500 TCID50, 5 days): - | inhibition of formation of syncytia (in words) (SIVmac251; HUT78, SIV): in a dose-dependent manner | cytotoxicity (HUT78 cells; 50 μM, HIV2 table, 3 days): low cytotoxicity | cytotoxicity (HUT78 cells; 50 μM, SIV table, 3 days): low cytotoxicity | cytotoxicity (HUT78 cells; 100 μM, HIV2 table, 3 days): high cytotoxicity | cytotoxicity (HUT78 cells; 100 μM, HIV2 table, 5 days): cytotoxicity | cytotoxicity (HUT78 cells; 100 μM, SIV table, 3 days): high cytotoxicity | cytotoxicity (HUT78 cells; 100 μM, SIV table, 5 days): cytotoxicity | RT activity in the supernatants of infected thymocytes (HIV LAV/BRU; 10 days): decrease in RT activity | CD4+ cells in infected thymocyte cultures (HIV LAV/BRU; in proportion to the concentration): preservation or the reappearance of CD4+ cells | infection of CD4+ thymocytes and distribution of subpopulations of thymic cells (HIV LAV/BRU; infected cultures): inhibits the infection of CD4+ thermocytes by HIV and restores a normal distribution of the subpopulations of thymic cells
